We go through 17 compounds from patent US20220227781A1, “PYRIMIDINE DERIVATIVE INHIBITING GROWTH OF CANCER CELL AND MEDICINAL USE THEREOF” (ONCOBIX CO., LTD., priority 2019, published 2022).

In the test the target is EXON 20 Insertion (NPG) Ba/F3 Cell (Homo sapiens, UniProt P00533, INS772GNP, cells depend on it). The test can be described thus: Measurement of inhibitory effect on cancer cell growth (MTT assay). Particulars: read-out: Measured value of inhibitory effect on cancer cell growth (IC50), EXON 20 Insertion (NPG) Ba/F3 Cell, Ba/F3 cells expressing EGFR with NPG inserted at D770_N771, 72 hours treatment, read at 595 nm. Background: Tetrazolium assays rely on reduction of a dye to a coloured formazan, in cell work by metabolically active cells.
Sequence of EXON 20 Insertion (NPG) Ba/F3 Cell (P00533 with tags, fused parts or gaps INS772GNP): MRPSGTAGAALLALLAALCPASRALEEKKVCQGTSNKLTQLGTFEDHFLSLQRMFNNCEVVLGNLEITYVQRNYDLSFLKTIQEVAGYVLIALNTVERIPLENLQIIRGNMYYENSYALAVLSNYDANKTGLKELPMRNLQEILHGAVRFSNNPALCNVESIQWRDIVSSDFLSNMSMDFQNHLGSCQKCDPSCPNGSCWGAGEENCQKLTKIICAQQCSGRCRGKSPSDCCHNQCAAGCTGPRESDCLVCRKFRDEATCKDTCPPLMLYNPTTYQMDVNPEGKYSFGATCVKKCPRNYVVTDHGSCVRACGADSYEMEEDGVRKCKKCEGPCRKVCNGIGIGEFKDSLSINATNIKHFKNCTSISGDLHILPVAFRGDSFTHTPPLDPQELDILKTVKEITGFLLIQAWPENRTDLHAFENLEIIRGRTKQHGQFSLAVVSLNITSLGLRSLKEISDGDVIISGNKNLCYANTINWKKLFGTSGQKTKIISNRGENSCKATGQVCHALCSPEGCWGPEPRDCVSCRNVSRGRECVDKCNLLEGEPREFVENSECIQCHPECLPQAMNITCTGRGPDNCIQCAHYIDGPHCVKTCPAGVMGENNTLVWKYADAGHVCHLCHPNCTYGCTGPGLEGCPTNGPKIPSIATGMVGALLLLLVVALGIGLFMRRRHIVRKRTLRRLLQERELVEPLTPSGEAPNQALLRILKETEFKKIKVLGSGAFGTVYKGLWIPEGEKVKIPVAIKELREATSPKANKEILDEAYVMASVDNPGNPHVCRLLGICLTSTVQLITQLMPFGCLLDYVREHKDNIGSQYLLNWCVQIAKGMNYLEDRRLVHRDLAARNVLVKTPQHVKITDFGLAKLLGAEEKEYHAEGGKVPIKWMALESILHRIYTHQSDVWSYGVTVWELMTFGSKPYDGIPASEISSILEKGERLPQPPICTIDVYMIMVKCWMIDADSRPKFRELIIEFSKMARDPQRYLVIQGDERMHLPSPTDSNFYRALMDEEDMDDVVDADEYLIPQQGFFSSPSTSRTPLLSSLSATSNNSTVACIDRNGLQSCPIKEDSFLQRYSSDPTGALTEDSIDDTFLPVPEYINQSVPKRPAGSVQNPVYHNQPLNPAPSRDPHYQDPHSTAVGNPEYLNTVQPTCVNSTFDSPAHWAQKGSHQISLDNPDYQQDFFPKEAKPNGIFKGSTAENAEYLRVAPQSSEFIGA
Experimental: First, the present invention used a vector in which NPG of 3 amino acids were added to D770_N771 site of the most frequent alterations, and used the Ba/F3 cell line for expression of these genes.
Pre-constructed stable cells of 1×10^4 cells were placed in a 96 well plate and incubated overnight, and then the compounds of Examples were treated at a dose dependent manner After 72 hours, MTT reagent was added, and after 3 hours, stop buffer (10% SDS) was added.
As to `COc1cc(N(C)CCN(C)C)c(NC(C)C)cc1Nc1ncc(Cl)c(Nc2ccccc2N(C)S(C)(=O)=O)n1` [Example 1, N-(2-((5-chloro-2-((4-((2-(dimethylamino)ethyl)(methyl)amino)-5-(isopropylamino)-2-methoxyphenyl)amino)pyrimidin-4-yl)amino)phenyl)-N-methylmethanesulfonamide], the GI50 is 0.3 to 1 µM. For `COc1cc(N(C)CCN(C)C)c(NC(C)C)cc1Nc1nc(Nc2ccccc2N(C)S(C)(=O)=O)c2sccc2n1` [Example 2, N-(2-((2-((4-((2-(dimethylamino)ethyl)(methyl)amino)-5-(isopropylamino)-2-methoxyphenyl)amino)thieno[3,2-d]pyrimidin-4-yl)amino)phenyl)-N-methylmethanesulfonamide] the value was 0.3 to 1 µM; for `COc1cc(N2CCC(N(C)C)CC2)c(NC(C)C)cc1Nc1nc(Nc2ccccc2N(C)S(C)(=O)=O)c2sccc2n1` [Example 3, N-(2-((2-((4-(4-(dimethylamino)piperidin-1-yl)-5-(isopropylamino)-2-methoxyphenyl)amino)thieno[3,2-d]pyrimidin-4-yl)amino)phenyl)-N-methylmethanesulfonamide], 0.3 to 1 µM; for `COc1cc(N2CCC(N3CCN(C)CC3)CC2)c(NC(C)C)cc1Nc1nc(Nc2ccccc2N(C)S(C)(=O)=O)c2sccc2n1` [Example 4, N-(2-((2-((5-(isopropylamino)-2-methoxy-4-(4-(4-methylpiperazin-1-yl)piperidin-1-yl)phenyl)amino)thieno[3,2-d]pyrimidin-4-yl)amino)phenyl)-N-methylmethanesulfonamide], 0.3 to 1 µM. To `COc1cc(N2CCC(N3CCN(C)CC3)CC2)c(NC(C)C)cc1Nc1ncc(Cl)c(Nc2ccccc2N(C)S(C)(=O)=O)n1` [Example 5, N-(2-((5-chloro-2-((5-(isopropylamino)-2-methoxy-4-(4-(4-methylpiperazin-1-yl)piperidin-1-yl)phenyl)amino)pyrimidin-4-yl)amino)phenyl)-N-methylmethanesulfonamide] belongs 0.3 to 1 µM; to `COc1cc(N2CCC(N(C)C)CC2)c(NC(C)C)cc1Nc1ncc(Cl)c(Nc2ccccc2N(C)S(C)(=O)=O)n1` [Example 6, N-(2-((5-chloro-2-((4-(4-(dimethylamino)piperidin-1-yl)-5-(isopropylamino)-2-methoxyphenyl)amino)pyrimidin-4-yl)amino)phenyl)-N-methylmethanesulfonamide], 0.3 to 1 µM; to `C=CC(=O)Nc1cc(Nc2nc(Nc3ccccc3N(C)S(C)(=O)=O)c3sccc3n2)c(OC)cc1N1CCC(N2CCN(C)CC2)CC1` [Example 7, N-(4-methoxy-5-((4-((2-(N-methylmethylsulfonamido)phenyl)amino)thieno[3,2-d]pyrimidin-2-yl)amino)-2-(4-(4-methylpiperazin-1-yl)piperidin-1-yl)phenyl)acrylamide], 0.1 to 0.3 µM. To `C=CC(=O)Nc1cc(Nc2nc(Nc3ccccc3N(C)S(C)(=O)=O)c3sccc3n2)c(OC)cc1N(C)CCN(C)C` [Example 8, N-(2-((2-(dimethylamino)ethyl)(methyl)amino)-4-methoxy-5-((4-((2-(N-methylmethylsulfon amido)phenyl)amino)thieno[3,2-d]pyrimidin-2-yl)amino)phenyl)acrylamide] belongs 0.1 to 0.3 µM.

With `C=CC(=O)Nc1cc(Nc2nc(Nc3ccccc3N(C)S(C)(=O)=O)c3sccc3n2)c(OC)cc1N1CCC(N(C)C)CC1` [Example 9, N-(2-(4-(dimethylamino)piperidin-1-yl)-4-methoxy-5-((4-((2-(N-methylmethylsulfonamido)phenyl)amino)thieno[3,2-d]pyrimidin-2-yl)amino)phenyl)acrylamide], the GI50 lay within 0.1 to 0.3 µM. Take `C=CC(=O)Nc1cc(Nc2ncc(Cl)c(Nc3ccccc3NS(C)(=O)=O)n2)c(OC)cc1N(C)CCN(C)C` [Example 10, N-(5-((5-chloro-4-((2-(methylsulfonamido)phenyl)amino)pyrimidin-2-yl)amino)-2-((2-(dimethylamino)ethyl)(methyl)amino)-4-methoxyphenyl)acrylamide]: the GI50 was < 0.1 µM.

With `C=CC(=O)Nc1cc(Nc2ncc(Cl)c(Nc3ccc4nccnc4c3N(C)S(C)(=O)=O)n2)c(OC)cc1N(C)CCN(C)C` [Example 11, N-(5-((5-chloro-4-((5-(N-methylmethylsulfonamido)quinoxalin-6-yl)amino)pyrimidin-2-yl)amino)-2-((2-(dimethylamino)ethyl)(methyl)amino)-4-methoxyphenyl)acrylamide], the GI50 is < 0.1 µM. To `C=CC(=O)Nc1cc(Nc2ncc(Cl)c(Nc3ccc4nccnc4c3NS(C)(=O)=O)n2)c(OC)cc1N(C)CCN(C)C` [Example 12, N-(5-((5-chloro-4-((5-(methylsulfonamido)quinoxalin-6-yl)amino)pyrimidin-2-yl)amino)-2-((2-(dimethylamino)ethyl)(methyl)amino)-4-methoxyphenyl)acrylamide] belongs < 0.1 µM; to `C=CC(=O)Nc1cc(Nc2ncc(Cl)c(Nc3cc(F)ccc3N(C)S(C)(=O)=O)n2)c(OC)cc1N(C)CCN(C)C` [Example 13, N-(5-((5-chloro-4-((5-fluoro-2-(N-methylmethylsulfonamido)phenyl)amino)pyrimidin-2-yl)amino)-2-((2-(dimethylamino)ethyl)(methyl)amino)-4-methoxyphenyl)acrylamide], < 0.1 µM. For `C=CC(=O)Nc1cc(Nc2ncc(Cl)c(Nc3cc(F)ccc3NS(C)(=O)=O)n2)c(OC)cc1N(C)CCN(C)C` [Example 14, N-(5-((5-chloro-4-((5-fluoro-2-(methylsulfonamido)phenyl)amino)pyrimidin-2-yl)amino)-2-((2-(dimethylamino)ethyl)(methyl)amino)-4-methoxyphenyl)acrylamide] the value was < 0.1 µM; for `C=CC(=O)Nc1cc(Nc2ncc(C(=O)OC(C)C)c(Nc3ccccc3N(C)S(C)(=O)=O)n2)c(OC)cc1N(C)CCN(C)C` [Example 15, ISOPROPYL 2-((5-acrylamido-4-((2-(dimethylamino)ethyl)(methyl)amino)-2-methoxyphenyl)amino)-4-((2-(N-methylmethylsulfonamido)phenyl)amino)pyrimidine-5-carboxylate], < 0.1 µM; for `C=CC(=O)Nc1cc(Nc2ncc(C(=O)OC3CC3)c(Nc3ccccc3N(C)S(C)(=O)=O)n2)c(OC)cc1N(C)CCN(C)C` [Example 16, CYCLOPROPYL 2-((5-acrylamido-4-((2-(dimethylamino)ethyl)(methyl)amino)-2-methoxyphenyl)amino)-4-((2-(N-methylmethylsulfonamido)phenyl)amino)pyrimidine-5-carboxylate], < 0.1 µM. To `C=CC(=O)Nc1cc(Nc2cc(Nc3ccccc3N(C)S(C)(=O)=O)ncn2)c(OC)cc1N(C)CCN(C)C` [Example 17, N-(2-((2-(dimethylamino)ethyl)(methyl)amino)-4-methoxy-5-((6-((2-(N-methylmethylsulfon amido)phenyl)amino)pyrimidin-4-yl)amino)phenyl)acrylamide] belongs < 0.1 µM.
